Here are results for 2 compounds from patent US5171751A, “Benzofuran/benzofuranalkyl-N-terminal amino hydroxy” (G. D. Searle & Co., priority 1991, dated 1992).

For assay [1], the target named is T1, human renin (Homo sapiens, UniProt P00797).
T1 construct: purchased National Institute for Biological Standards, London
T1 sequence (P00797 67-406): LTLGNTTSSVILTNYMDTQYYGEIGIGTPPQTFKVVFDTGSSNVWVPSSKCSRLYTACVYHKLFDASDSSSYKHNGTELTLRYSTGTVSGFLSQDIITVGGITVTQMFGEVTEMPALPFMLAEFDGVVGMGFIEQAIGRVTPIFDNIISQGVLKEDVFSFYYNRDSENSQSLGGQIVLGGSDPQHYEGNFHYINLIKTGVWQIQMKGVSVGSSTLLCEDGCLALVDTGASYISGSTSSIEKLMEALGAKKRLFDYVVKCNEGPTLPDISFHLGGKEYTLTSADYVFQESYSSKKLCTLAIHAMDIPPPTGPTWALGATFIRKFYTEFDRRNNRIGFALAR
The assay is described as follows: In vitro human renin inhibition (angiotensin I determined by radioimmunoassay). In kind it is biochemical. The following applies: 37° C., pH 7.4, two hours. The protocol: Compounds of Formula I were evaluated as inhibitors of human renin in an in vitro assay. This human renin inhibition test has been previously described in detail Papaioannou et al., Clinical and Experimental Hypertension, A7(9), 1243-1257 (1985)]. Human renin was obtained from the National Institute for Biological Standards, London. An incubation mixture was prepared containing in a total volume of 0.25 mL 100 mM Tris-acetate buffer at pH 7.4, 25×10^-6 Goldblatt units of renin, 0.05mL of plasma from human volunteers taking oral contraceptives, 6.0 mM sodium EDTA, 2.4 mM phenylmethyl sulfonyl fluoride, 1.5 mM 8-hydroxyquinoline, 0.4 mg/mL BSA, and 0.024 mg/mL neomycin sulfate. This mixture was incubated for two hours at 37° C. in the presence or absence of renin inhibitors. The produced angiotensin I was determined by radioimmunoassay (New England Nuclear kit). Test compounds to be assayed were dissolved in DMSO and diluted with 100mM Tris-acetate buffer at pH 7.4 containing 0.5% BSA to the appropriate concentration. The final concentration of organic solvent in the reaction mixture was less than 1%. Control incubations at 37° C. were used to correct for effects of organic solvent on renin activity.

The test system of assay [2] is renin. The following applies: cited from earlier work.
Assay [3] relates to acid proteases. The following applies: cited from earlier work.
The test system of assay [4] is pepsin. As to conditions: cited from earlier work.
Assay [5] concerns hog renin. The following applies: after injection of hog renin into nephrectomized rats; cited from earlier work.
The test system of assay [6] is cathepsin D. As to conditions: cited from earlier work.

Square brackets hold non-standard residues; d marks the D form. Peptide text beside a SMILES is read from it. * marks the point of attachment. Sta = CC(C)C[C@H](N)[C@@H](O)CC(=O)O; Isovaleryl = CC(C)CC(=O)*

One may read the IC50 as the midpoint of a concentration-inhibition curve. Low values mean greater potency, high ones weaker potency. Consider `CC(C)C[C@H](O)[C@H](O)[C@H](CC1CCCCC1)NC(=O)[C@H](C)CNC(=O)CCc1c[nH]c2ccccc12` [Example 22, N-[3-[[1S, 1R^* -(cyclohexylmethyl)-2S^*, 3R^* -dihydroxy-5-methylhexyl]amino]-2S^* -methyl-3-oxopropyl]-1H-indole-3-propanamide], for which the IC50 in assay [1] worked out at 430 nM.

As to `CC(C)CC(=O)N[C@H](C(=O)N[C@H](C(=O)N[C@@H](CC(C)C)[C@@H](O)CC(=O)N[C@@H](C)C(=O)N[C@@H](CC(C)C)[C@@H](O)CC(=O)O)C(C)C)C(C)C` [pepstatin] (Isovaleryl-VV[Sta]A[Sta]-OH), in assay [2], the inhibitor of renin entry is “inhibitor”. Moreover, the “inhibiting acid proteases in addition to renin” value in assay [3] was “inhibiting acid proteases in addition to renin”. Also, the inhibitor of pepsin result in assay [4] is listed as “inhibitor”. Further, the “reduction of blood pressure in vivo” value in assay [5] was “reduce blood pressure in vivo”. Further, the “inhibitor of cathepsin D” value in assay [6] is “inhibitor”.
